Reference: patent publication US20250312499A1, “KISSPEPTIN RECEPTOR (KISS1R) TARGETED THERAPEUTICS AND USES THEREOF” (priority 2024, published 2025)
Numbered stars: 1 amine (or outer) side, 2 acyl side, 3 side chain; on linkers, the order of the positions; unused ones are H or OH. Square brackets hold non-standard residues; d marks the D form. Peptide text beside a SMILES is read from it. * marks the point of attachment. DOTA = O=C(O)CN1CCN(CC(=O)O)CCN(CC(=O)*)CCN(CC(=O)O)CC1; Ala(9-anthryl) = N[C@@H](Cc1c2ccccc2cc2ccccc12)C(=O)O; Gly(N-(3-F-4-Me-benzyl)) = Cc1ccc(CNCC(=O)*)cc1F; Gly(N-3-F-4-Me-benzyl) = Cc1ccc(CNCC(=O)O)cc1F; Gly(Nα-4-MeO-benzyl) = COc1ccc(CNCC(=O)*)cc1; X4 = O=C(c1ccc(-c2ccccc2OCCCN[*:1])cc1)[*:2]; Api(1-amidino) = N=C(N)N1CCC(N)(C(=O)O)CC1; Hydrocinnamoyl(4-Me) = Cc1ccc(CCC(=O)*)cc1; Bip = N[C@@H](Cc1ccc(-c2ccccc2)cc1)C(=O)O; 2Nal = N[C@@H](Cc1ccc2ccccc2c1)C(=O)O; X1 = O=C(CN1CCC(N[*:1])CC1)[*:2]; dCya = N[C@H](CS(=O)(=O)O)C(=O)O; 4Pal = N[C@@H](Cc1ccncc1)C(=O)O; d4Pal = N[C@H](Cc1ccncc1)C(=O)O; Cha = N[C@@H](CC1CCCCC1)C(=O)O; Nle = CCCC[C@H](N)C(=O)O; Octanoyl = CCCCCCCC(=O)*; Api = NC1(C(=O)O)CCNCC1; PEG2 = NCCOCCOCCC(=O)O; Ahx = NCCCCCC(=O)O; azaGly = NNC(=O)O; Sar = CNCC(=O)O

Target: human kisspeptin receptor (Homo sapiens (Human), UniProt Q969F8)
Assay: Human KISS1R binding assay (membrane competition binding)
Details: 90 min at room temperature; competition with 0.2 nM [125I]-metastin (45-54); Flp-In T-Rex 293 kisspeptin membranes; metal complexes nonradioactive Ga, In, Lu; read-out: hKiSSR Binding Ki (90 min)
Summary of the method: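 Radioligand competition: 0.2 nM [125I]-metastin (45-54) displaced by test ligand (usually 0–10,000 nM) over 90 min at room temperature, pH 7.4 buffer with 0.1% BSA. Receptor source is crude membrane (5–10 μg) from tetracycline-induced Flp-In T-Rex 293 cells. Bound label filtered and counted; Ki from non-linear regression.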

human kisspeptin receptor, sequence (Q969F8 whole entry): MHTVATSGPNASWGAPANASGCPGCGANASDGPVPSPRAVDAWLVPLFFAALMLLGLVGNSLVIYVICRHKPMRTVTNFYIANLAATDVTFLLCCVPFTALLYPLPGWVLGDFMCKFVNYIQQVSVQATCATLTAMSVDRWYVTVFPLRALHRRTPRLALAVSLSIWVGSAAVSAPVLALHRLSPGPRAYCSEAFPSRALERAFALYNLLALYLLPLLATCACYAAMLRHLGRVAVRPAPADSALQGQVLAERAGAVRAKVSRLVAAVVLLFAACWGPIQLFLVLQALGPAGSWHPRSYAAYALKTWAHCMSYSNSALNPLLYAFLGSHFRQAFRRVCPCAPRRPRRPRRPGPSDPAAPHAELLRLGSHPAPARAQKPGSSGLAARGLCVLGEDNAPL

Ki [µM]	Structure (SMILES)
< 0.01	CNCC(=O)N1CCC(NC(=O)[C@H](CC(C)C)NC(=O)NNC(=O)[C@H](Cc2ccccc2)NC(=O)[C@@H](NC(=O)[C@H](CC(N)=O)NC(=O)[C@@H](CCCCNC(=O)CN2CCN(CC(=O)O)CCN(CC(=O)O)CCN(CC(=O)O)CC2)NC(=O)[C@@H](Cc2ccc(O)cc2)NC(=O)CCOCCOCCNC(=O)CCc2ccc(C)cc2)[C@@H](C)O)(C(=O)N[C@H](Cc2c[nH]c3ccccc23)C(N)=O)CC1 [Compound 357] ({Hydrocinnamoyl(4-Me)-PEG2}-[dY][dK](DOTA)NTF[azaGly]L[Api](Sar)[dW]-NH2)
< 0.01	Cc1ccc(CNCC(=O)N2CCC(NC(=O)[C@H](CC(C)C)NC(=O)NNC(=O)[C@H](Cc3ccccc3)NC(=O)[C@@H](NC(=O)[C@H](CC(N)=O)NC(=O)[C@@H](Cc3c[nH]c4ccccc34)NC(=O)[C@H](Cc3ccc(O)cc3)NC(=O)CNC(=O)CN3CCN(CC(=O)O)CCN(CC(=O)O)CCN(CC(=O)O)CC3)[C@@H](C)O)(C(=O)N[C@@H](Cc3c[nH]c4ccccc34)C(N)=O)CC2)cc1F [Compound 151] ({DOTA}-GY[dW]NTF[azaGly]L[Api](Gly(N-(3-F-4-Me-benzyl)))W-NH2)
< 0.01	Cc1ccc(CNCC(=O)N2CCC(NC(=O)[C@H](CC(C)C)NC(=O)NNC(=O)[C@H](Cc3ccccc3)NC(=O)CCCCCNC(=O)[C@@H](CS(=O)(=O)O)NC(=O)[C@@H](CS(=O)(=O)O)NC(=O)[C@@H](CS(=O)(=O)O)NC(=O)CN3CCN(CC(=O)O)CCN(CC(=O)O)CCN(CC(=O)O)CC3)(C(=O)N[C@@H](Cc3c[nH]c4ccccc34)C(N)=O)CC2)cc1F [Compound 131] ({DOTA}-[dCya][dCya][dCya][Ahx]F[azaGly]L[Api](Gly(N-(3-F-4-Me-benzyl)))W-NH2)
< 0.01	Cc1ccc(CNCC(=O)N2CCC(NC(=O)[C@H](CC(C)C)NC(=O)CNC(=O)[C@H](Cc3ccccc3)NC(=O)CCCCCNC(=O)CN3CCN(CC(=O)O)CCN(CC(=O)O)CCN(CC(=O)O)CC3)(C(=O)N[C@@H](Cc3ccc(O)cc3)C(N)=O)CC2)cc1F [Compound 11] ({DOTA-Ahx}-FGL[Api](Gly(N-(3-F-4-Me-benzyl)))Y-NH2)
< 0.01	Cc1ccc(CNCC(=O)N2CCC(NC(=O)[C@H](CC(C)C)NC(=O)NNC(=O)[C@H](Cc3ccccc3)NC(=O)[C@@H](NC(=O)[C@H](CC(N)=O)NC(=O)[C@@H](Cc3ccncc3)NC(=O)[C@@H](Cc3ccc(O)cc3)NC(=O)CCCCCNC(=O)CN3CCN(CC(=O)O)CCN(CC(=O)O)CCN(CC(=O)O)CC3)[C@@H](C)O)(C(=O)N[C@@H](Cc3ccncc3)C(N)=O)CC2)cc1F [Compound 294] ({DOTA-Ahx}-[dY][d4Pal]NTF[azaGly]L[Api](Gly(N-(3-F-4-Me-benzyl)))[4Pal]-NH2)
< 0.01	Cc1ccc(CNCC(=O)N2CCC(NC(=O)[C@H](CC(C)C)NC(=O)NNC(=O)[C@H](Cc3ccccc3)NC(=O)[C@@H](NC(=O)[C@H](CCC(=O)O)NC(=O)CN3CCC(NC(=O)CN4CCN(CC(=O)O)CCN(CC(=O)O)CCN(CC(=O)O)CC4)CC3)[C@@H](C)O)(C(=O)N[C@@H](Cc3c[nH]c4ccccc34)C(N)=O)CC2)cc1F [Compound 234] ({DOTA}-[X1]ETF[azaGly]L[Api](Gly(N-(3-F-4-Me-benzyl)))W-NH2)
< 0.01	CNCC(=O)N1CCC(NC(=O)[C@H](CC(C)C)NC(=O)NNC(=O)[C@H](Cc2ccccc2)NC(=O)[C@@H](NC(=O)[C@H](CC(N)=O)NC(=O)[C@H](Cc2ccc(-c3ccccc3)cc2)NC(=O)[C@@H](Cc2ccc(O)cc2)NC(=O)CCCCCNC(=O)CN2CCN(CC(=O)O)CCN(CC(=O)O)CCN(CC(=O)O)CC2)[C@@H](C)O)(C(=O)N[C@H](Cc2c[nH]c3ccccc23)C(N)=O)CC1 [Compound 389] ({DOTA-Ahx}-[dY][Bip]NTF[azaGly]L[Api](Sar)[dW]-NH2)
> 0.1	CCCC[C@H](NC(=O)NNC(=O)[C@H](Cc1ccccc1)NC(=O)[C@@H](NC(=O)[C@H](CC(N)=O)NC(=O)[C@H](Cc1c2ccccc2cc2ccccc12)NC(=O)[C@@H](Cc1ccc(O)cc1)NC(=O)CN1CCN(CC(=O)O)CCN(CC(=O)O)CCN(CC(=O)O)CC1)[C@@H](C)O)C(=O)NC1(C(=O)N[C@@H](Cc2ccncc2)C(N)=O)CCN(C(=N)N)CC1 [Compound 123] ({DOTA}-[dY][Ala(9-anthryl)]NTF[azaGly][Nle][Api(1-amidino)][4Pal]-NH2)
< 0.01	Cc1ccc(CNCC(=O)N2CCC(NC(=O)[C@H](CC(C)C)NC(=O)NNC(=O)[C@H](CC3CCCCC3)NC(=O)[C@@H](NC(=O)[C@H](CC(N)=O)NC(=O)[C@@H](Cc3ccncc3)NC(=O)[C@@H](Cc3ccc(O)cc3)NC(=O)CN3CCN(CC(=O)O)CCN(CC(=O)O)CCN(CC(=O)O)CC3)[C@@H](C)O)(C(=O)N[C@@H](Cc3c[nH]c4ccccc34)C(N)=O)CC2)cc1F [Compound 315] ({DOTA}-[dY][d4Pal]NT[Cha][azaGly]L[Api](Gly(N-(3-F-4-Me-benzyl)))W-NH2)
< 0.01	CNCC(=O)N1CCC(NC(=O)[C@H](CC(C)C)NC(=O)NNC(=O)[C@H](CC2CCCCC2)NC(=O)[C@@H](NC(=O)[C@H](CC(N)=O)NC(=O)[C@H](CCCCNC(=O)CN2CCN(CC(=O)O)CCN(CC(=O)O)CCN(CC(=O)O)CC2)NC(=O)[C@@H](Cc2ccc(O)cc2)NC(=O)CCOCCOCCNC(=O)CCc2ccc(C)cc2)[C@@H](C)O)(C(=O)N[C@H](Cc2c[nH]c3ccccc23)C(N)=O)CC1 [Compound 356] ({Hydrocinnamoyl(4-Me)-PEG2}-[dY]K(DOTA)NT[Cha][azaGly]L[Api](Sar)[dW]-NH2)
0.01 to 0.1	Cc1ccc(CNCC(=O)N2CCC(NC(=O)[C@H](CC(C)C)N3CC(NC(=O)[C@H](Cc4ccccc4)NC(=O)CCCCCNC(=O)CN4CCN(CC(=O)O)CCN(CC(=O)O)CCN(CC(=O)O)CC4)C3)(C(=O)N[C@@H](Cc3c[nH]c4ccccc34)C(N)=O)CC2)cc1F [Compound 139]
> 0.1	COc1ccc(CNCC(=O)N2CCC(NC(=O)[C@@H](CC(C)C)NC(=O)NNC(=O)[C@H](Cc3ccccc3)NC(=O)[C@@H](NC(=O)[C@H](CC(N)=O)NC(=O)[C@H](CCC(=O)O)NC(=O)CN3CCN(CC(=O)O)CCN(CC(=O)O)CCN(CC(=O)O)CC3)[C@@H](C)O)(C(=O)N[C@@H](Cc3ccccc3)C(N)=O)CC2)cc1 [Compound 239] ({DOTA}-ENTF[azaGly][dL][Api](Gly(Nα-4-MeO-benzyl))F-NH2)
< 0.01	CCCCCCCC(=O)N[C@H](Cc1ccc(O)cc1)C(=O)N[C@@H](CCCCNC(=O)CN1CCN(CC(=O)O)CCN(CC(=O)O)CCN(CC(=O)O)CC1)C(=O)N[C@@H](CC(N)=O)C(=O)N[C@H](C(=O)N[C@@H](Cc1ccccc1)C(=O)NNC(=O)N[C@@H](CC(C)C)C(=O)NC1(C(=O)N[C@@H](Cc2ccc(O)cc2)C(N)=O)CCN(C(=N)N)CC1)[C@@H](C)O [Compound 332] (Octanoyl-[dY]K(DOTA)NTF[azaGly]L[Api(1-amidino)]Y-NH2)
< 0.01	Cc1ccc(CNCC(=O)N2CCC(NC(=O)[C@H](CC(C)C)NC(=O)NNC(=O)[C@H](Cc3ccccc3)NC(=O)[C@@H](NC(=O)[C@H](CC(N)=O)NC(=O)[C@@H](Cc3ccncc3)NC(=O)[C@@H](Cc3ccc(O)cc3)NC(=O)CCOCCOCCNC(=O)CN3CCN(CC(=O)O)CCN(CC(=O)O)CCN(CC(=O)O)CC3)[C@@H](C)O)(C(=O)N[C@@H](Cc3c[nH]c4ccccc34)C(N)=O)CC2)cc1F [Compound 368] ({DOTA-PEG2}-[dY][d4Pal]NTF[azaGly]L[Api](Gly(N-(3-F-4-Me-benzyl)))W-NH2)
< 0.01	COc1ccc(CNCC(=O)N2CCC(NC(=O)[C@H](CC(C)C)NC(=O)NNC(=O)[C@H](Cc3ccccc3)NC(=O)[C@@H](NC(=O)[C@H](CC(N)=O)NC(=O)[C@@H](Cc3c[nH]c4ccccc34)NC(=O)[C@@H](Cc3ccc(O)cc3)NC(=O)CCCCCNC(=O)CN3CCN(CC(=O)O)CCN(CC(=O)O)CCN(CC(=O)O)CC3)[C@@H](C)O)(C(=O)N[C@@H](Cc3ccncc3)C(N)=O)CC2)cc1 [Compound 293] ({DOTA-Ahx}-[dY][dW]NTF[azaGly]L[Api](Gly(Nα-4-MeO-benzyl))[4Pal]-NH2)
< 0.01	Cc1ccc(CNCC(=O)N2CCC(NC(=O)[C@H](CC(C)C)NC(=O)NNC(=O)[C@H](Cc3ccccc3)NC(=O)CN3CCC(NC(=O)CN4CCN(CC(=O)O)CCN(CC(=O)O)CCN(CC(=O)O)CC4)CC3)(C(=O)N[C@@H](Cc3ccccc3)C(N)=O)CC2)cc1F [Compound 245] ({DOTA}-[X1]F[azaGly]L[Api](Gly(N-(3-F-4-Me-benzyl)))F-NH2)
< 0.01	CNCC(=O)N1CCC(NC(=O)[C@H](CC(C)C)NC(=O)NNC(=O)[C@H](Cc2ccccc2)NC(=O)[C@@H](NC(=O)[C@H](CC(N)=O)NC(=O)[C@H](CCCCNC(=O)CN2CCN(CC(=O)O)CCN(CC(=O)O)CCN(CC(=O)O)CC2)NC(=O)[C@@H](Cc2ccc(O)cc2)NC(=O)CNCc2ccc(C)c(F)c2)[C@@H](C)O)(C(=O)N[C@H](Cc2c[nH]c3ccccc23)C(N)=O)CC1 [Compound 360] (H-[Gly(N-3-F-4-Me-benzyl)][dY]K(DOTA)NTF[azaGly]L[Api](Sar)[dW]-NH2)
0.01 to 0.1	Cc1ccc(CNCC(=O)N2CCC(NC(=O)[C@H](CC(C)C)SC(C)(C)CNC(=O)[C@H](Cc3ccccc3)NC(=O)CCCCCNC(=O)CN3CCN(CC(=O)O)CCN(CC(=O)O)CCN(CC(=O)O)CC3)(C(=O)N[C@@H](Cc3c[nH]c4ccccc34)C(N)=O)CC2)cc1F [Compound 138]
< 0.01	CC(C)C[C@H](NC(=O)NNC(=O)[C@H](Cc1ccccc1)NC(=O)[C@@H](NC(=O)[C@H](CC(N)=O)NC(=O)[C@H](Cc1ccc2ccccc2c1)NC(=O)[C@@H](Cc1ccc(O)cc1)NC(=O)CCCCCNC(=O)CN1CCN(CC(=O)O)CCN(CC(=O)O)CCN(CC(=O)O)CC1)[C@@H](C)O)C(=O)NC1(C(=O)N[C@@H](Cc2ccccc2)C(N)=O)CCN(C(=N)N)CC1 [Compound 277] ({DOTA-Ahx}-[dY][2Nal]NTF[azaGly]L[Api(1-amidino)]F-NH2)

Structure (SMILES)	Ki [µM]
Cc1ccc(CNCC(=O)N2CCC(NC(=O)[C@H](CC(C)C)NC(=O)NNC(=O)c3ccc(-c4ccccc4OCCCNC(=O)CN4CCC(NC(=O)CN5CCN(CC(=O)O)CCN(CC(=O)O)CCN(CC(=O)O)CC5)CC4)cc3)(C(=O)N[C@@H](Cc3c[nH]c4ccccc34)C(N)=O)CC2)cc1F [Compound 217] ({DOTA}-[X1][X4][azaGly]L[Api](Gly(N-(3-F-4-Me-benzyl)))W-NH2)	< 0.01
